The record followed here is patent publication US11319551B2, “Methods and compositions for PPO herbicide tolerance in plants” (Monsanto Technology LLC, priority 2015, dated 2022).

The term IC50 denotes the point on the concentration scale where inhibition reaches its midpoint.

For one test, the target named is E. coli HemG (Escherichia coli, UniProt P0ACB4). Briefly: PPO enzyme assay, bacterial extract.
The test system of the next test is R2N40. Briefly: PPO enzyme assay, bacterial extract.
In another test the test system is R2N30. Briefly: PPO enzyme assay, bacterial extract.
In a further test the target is corn PPO. Briefly: PPO enzyme assay, plant plastid extract. The format is biochemical, Zea mays. The following applies: 3 μM protogen, 30° C., read-out: S-3100 IC50. As for the experimental part:
(§1) Plant plastid extract was produced used etioplasts and chloroplasts that were prepared from etiolated cotyledons (soybean, Glycine max), etiolated leaves/coleoptiles (corn, Zea mays) and unfolded apical leaves (A. tuberculatus) generally by the procedure described by Grossmann (2010). Soybean (A3555) and corn (LH244) seeds were placed between two sheets of moist germination paper (Anchor Paper Company, Saint Paul, Minn.) in a beaker of water in continuous darkness for eight to ten days. A. tuberculatus plants were grown for 30 days in the greenhouse. Tissue was collected, placed between moist sheets of paper towels and ground to fine powder with a mortar and pestle in liquid nitrogen. Homogenization buffer (50 mM Tris-HCl, pH 7.4, 500 mM sucrose, 1 mM EDTA, 1 mM magnesium chloride, and 2 g/liter bovine serum albumin) was added to the frozen powder at 4:1 (ml homogenization buffer to g fresh weight tissue), mixed vigorously and filtered through four layers of pre-moistened Miracloth. The filtrate was centrifuged at 9299 g for five minutes. The pellet was resuspended in homogenization buffer and centrifuged at 150 g for two minutes. The supernatant solution was centrifuged at 4000 g for fifteen minutes. All centrifugation steps were carried out a 4° C. […]

The target in the next test is soybean PPO. The experiment in a line: PPO enzyme assay, plant plastid extract. In kind it is biochemical, Glycine max. The following applies: 3 μM protogen, 30° C., read-out: S-3100 IC50. As for the experimental part:
as §1

Setting [1] is: read-out: S-3100 IC50, bacterial extract, 3 μM protogen, 37° C.

Where only a bound is given, the exact number is not on record here.

Sequence of E. coli HemG (P0ACB4 whole entry): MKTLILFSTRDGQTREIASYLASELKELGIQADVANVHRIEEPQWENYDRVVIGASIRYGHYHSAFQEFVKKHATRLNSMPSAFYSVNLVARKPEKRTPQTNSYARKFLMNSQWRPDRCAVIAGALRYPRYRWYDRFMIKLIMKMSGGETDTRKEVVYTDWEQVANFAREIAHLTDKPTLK
Protocol for E. coli HemG: (§2) This assay used recombinant HemY PPO proteins with plant plastid extract and PPO substrate to identify protoporphyrinogen oxidases that had activity in the presence of a PPO herbicide.
(§3) Recombinant PPO enzymes were expressed in E. coli HemG knockout cell line and extracted for the enzyme assay. Bacterial cells from an overnight culture were used to inoculate 20 ml of fresh media. These cultures were allowed to grow for approximately 48 hrs at 20° C. to a dense culture. Bacterial cells were collected by centrifugation and the cell pellets stored at −80° C. until enzyme assays were performed. Frozen bacterial pellets were resuspended in extraction buffer (50 mM Tris-HCl, pH 7.6, 1 mM EDTA & 1 mM MgCl2) and sonicated (Sonics VibraCell™) for 30 seconds in an ice bath with a one-minute rest period between cycles. For E. coli transformed with a construct encoding E. coli HemG (SEQ ID NO: 76) the broken cells were centrifuged at 200 g for 2 minutes at 4° C. and the supernatant solution was used for PPO enzyme assays after dilution with extraction buffer. […]
(§4) A PPO enzyme assay was conducted to measure PPO activity using the plant plastid extract and bacterial extract preparations with the PPO substrate. PPO activity was measured generally as described by Grossmann (2010).
Protocol for R2N30: as §2, §3, §4
Protocol for R2N40: as §2, §3, §4

In the case of `CCOC(=O)COc1ncccc1Oc1cc(-n2c(=O)cc(C(F)(F)F)n(C)c2=O)c(F)cc1Cl` [S-3100], the concentration for half-maximal inhibition (IC50) is above 100000 nM against E. coli HemG; 40 nM on R2N40 (setting [1]); 20 nM at R2N30 (setting [1]); 3 nM at corn PPO; 4 nM on soybean PPO. The “less sensitive to the herbicide than the plant PPO enzymes” value in the test with R2N40 (R2N40 versus plant PPO enzymes) and in the test on R2N30 (R2N30 versus plant PPO enzymes) was 10 fold each time.
